Test [1] has as its target human TLR8 (Homo sapiens (Human), UniProt Q9NR97). The test is described as follows: HEK-Blue human TLR8 cells, NF-κB SEAP reporter assay. The settings on record: stimulation for 20 hours. It counts as cell-based. An excerpt:
(§1) For TLR8 and TLR7 activity testing, HEK-Blue human TLR8 or TLR7 cells (Invivogen, San Diego, Calif., USA) are used, respectively. These cells are designed for studying the stimulation of human TLR8 or TLR7 by monitoring the activation of NF-κB. A SEAP (secreted embryonic alkaline phosphatase) reporter gene is placed under the control of the IFN-b minimal promoter fused to five NF-κB and AP-1-binding sites. Therefore the reporter expression is regulated by the NF-κB promoter upon stimulation of human TLR8 or TLR7 for 20 hours. The cell culture supernatant SEAP reporter activity was determined using Quanti Blue kit (Invivogen, San Diego, Ca, USA) at a wavelength of 640 nm, a detection medium that turns purple/blue in the presence of alkaline phosphatase. EC50 values were determined using Activity Base analysis (ID Business Solution, Limited).
Background: In a reporter assay the amount or activity of a reporter protein is the signal.

The target of test [2] is human TLR7 (Homo sapiens (Human), UniProt Q9NYK1). Kind of test: HEK-Blue human TLR7 cells, NF-κB SEAP reporter assay. The format is cell-based. The conditions noted are these: stimulation for 20 hours.
Sequence of human TLR7 (Q9NYK1 27-1049): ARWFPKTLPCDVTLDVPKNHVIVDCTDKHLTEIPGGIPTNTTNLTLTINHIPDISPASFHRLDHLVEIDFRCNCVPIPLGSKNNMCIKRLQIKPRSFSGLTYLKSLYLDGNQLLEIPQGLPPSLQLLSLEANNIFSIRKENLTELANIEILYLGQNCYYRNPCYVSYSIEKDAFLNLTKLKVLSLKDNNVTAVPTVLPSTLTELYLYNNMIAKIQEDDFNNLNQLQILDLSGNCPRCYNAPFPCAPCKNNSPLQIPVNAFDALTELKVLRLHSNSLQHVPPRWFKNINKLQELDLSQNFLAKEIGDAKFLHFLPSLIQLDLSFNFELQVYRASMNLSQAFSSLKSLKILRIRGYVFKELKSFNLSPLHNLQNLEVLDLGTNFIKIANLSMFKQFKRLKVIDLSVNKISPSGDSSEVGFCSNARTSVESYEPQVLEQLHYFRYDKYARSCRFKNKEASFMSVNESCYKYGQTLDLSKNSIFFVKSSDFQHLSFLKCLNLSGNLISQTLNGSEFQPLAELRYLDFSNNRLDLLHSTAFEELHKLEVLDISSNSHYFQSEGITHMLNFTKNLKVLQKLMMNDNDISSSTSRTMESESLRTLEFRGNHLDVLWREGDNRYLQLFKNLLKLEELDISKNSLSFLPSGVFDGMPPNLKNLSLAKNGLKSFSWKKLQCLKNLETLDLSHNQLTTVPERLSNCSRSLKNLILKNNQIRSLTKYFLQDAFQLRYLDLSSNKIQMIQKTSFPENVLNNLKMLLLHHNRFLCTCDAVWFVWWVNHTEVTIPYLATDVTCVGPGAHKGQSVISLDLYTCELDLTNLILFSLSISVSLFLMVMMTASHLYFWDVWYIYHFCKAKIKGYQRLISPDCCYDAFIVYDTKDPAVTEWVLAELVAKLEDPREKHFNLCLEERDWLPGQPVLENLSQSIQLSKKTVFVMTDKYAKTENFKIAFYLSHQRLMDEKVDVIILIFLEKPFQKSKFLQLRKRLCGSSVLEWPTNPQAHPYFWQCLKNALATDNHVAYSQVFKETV
From the text: as §1

Sequence of human TLR8 (Q9NR97 27-1041): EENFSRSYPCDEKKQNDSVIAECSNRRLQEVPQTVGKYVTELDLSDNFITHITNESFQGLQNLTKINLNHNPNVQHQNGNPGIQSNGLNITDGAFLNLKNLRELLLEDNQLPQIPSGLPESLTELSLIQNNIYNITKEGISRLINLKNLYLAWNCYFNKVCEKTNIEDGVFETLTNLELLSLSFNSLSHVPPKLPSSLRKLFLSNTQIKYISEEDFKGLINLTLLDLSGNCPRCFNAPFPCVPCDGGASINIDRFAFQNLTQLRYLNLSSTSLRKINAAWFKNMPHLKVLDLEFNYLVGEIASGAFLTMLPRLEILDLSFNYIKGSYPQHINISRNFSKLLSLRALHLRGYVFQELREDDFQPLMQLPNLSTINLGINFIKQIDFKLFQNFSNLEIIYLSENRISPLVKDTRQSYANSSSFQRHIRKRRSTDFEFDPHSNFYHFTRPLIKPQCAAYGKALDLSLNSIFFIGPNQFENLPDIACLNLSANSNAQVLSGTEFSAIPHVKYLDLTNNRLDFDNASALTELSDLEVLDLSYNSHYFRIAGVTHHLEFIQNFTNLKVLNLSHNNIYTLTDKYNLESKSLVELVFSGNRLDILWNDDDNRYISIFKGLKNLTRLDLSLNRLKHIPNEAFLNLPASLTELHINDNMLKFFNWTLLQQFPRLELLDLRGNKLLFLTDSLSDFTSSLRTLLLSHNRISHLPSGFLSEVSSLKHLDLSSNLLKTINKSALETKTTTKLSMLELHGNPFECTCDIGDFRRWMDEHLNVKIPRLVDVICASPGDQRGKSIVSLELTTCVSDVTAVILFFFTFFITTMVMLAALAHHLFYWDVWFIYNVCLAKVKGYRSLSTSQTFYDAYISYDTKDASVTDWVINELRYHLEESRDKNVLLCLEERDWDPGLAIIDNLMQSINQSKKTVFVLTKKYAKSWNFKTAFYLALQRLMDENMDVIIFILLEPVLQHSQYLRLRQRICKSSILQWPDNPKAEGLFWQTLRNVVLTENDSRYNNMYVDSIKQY

Consider `CCCN(CCC)C(=O)C1=Cc2ccc(C(=O)Nc3cccnc3)cc2N=C(N)C1` [Example 1, 2-Amino-N4,N4-dipropyl-N8-(3-pyridyl)-3H-1-benzazepine-4,8-dicarboxamide], for which the EC50 amounted to 1 nM in test [1] and 80800 nM in test [2].

Turning to `CCCN(CCC)C(=O)C1=Cc2ccc(C(=O)Nc3cncnc3)cc2N=C(N)C1` [Example 2, 2-Amino-N4,N4-dipropyl-N8-pyrimidin-5-yl-3H-1-benzazepine-4,8-dicarboxamide], the figures for the EC50 in test [1] and in test [2] were 1 nM and more than 100000 nM, respectively.

Regarding `CCCN(CCC)C(=O)C1=Cc2ccc(C(=O)Nc3ccncc3)cc2N=C(N)C1` [Example 3, 2-Amino-N4,N4-dipropyl-N8-(4-pyridyl)-3H-1-benzazepine-4,8-dicarboxamide], the EC50 in test [1] was found to be 13 nM; in test [2], 70100 nM.

Take `CCCN(CCC)C(=O)C1=Cc2ccc(C(=O)Nc3ccccc3)cc2N=C(N)C1` [Example 4, 2-Amino-N8-phenyl-N4,N4-dipropyl-3H-1-benzazepine-4,8-dicarboxamide]: the EC50 is 7 nM in test [1] and more than 100000 nM in test [2].

As for `CCCN(CCC)C(=O)C1=Cc2ccc(C(=O)Nc3ccc(CN)nc3)cc2N=C(N)C1` [Example 5, 2-Amino-N8-[6-(aminomethyl)-3-pyridyl]-N4,N4-dipropyl-3H-1-benzazepine-4,8-dicarboxamide], the EC50 in test [1] is 3 nM; in test [2], more than 100000 nM.

As to `CCCN(CCC)C(=O)C1=Cc2ccc(C(=O)Nc3cncc(CO)c3)cc2N=C(N)C1` [Example 6, 2-Amino-N8-[5-(hydroxymethyl)-3-pyridyl]-N4,N4-dipropyl-3H-1-benzazepine-4,8-dicarboxamide], the EC50 in test [1] was 8 nM; in test [2], more than 100000 nM.

With `CCCN(CCC)C(=O)C1=Cc2ccc(C(=O)Nc3ccc(CO)nc3)cc2N=C(N)C1` [Example 7, 2-Amino-N8-[6-(hydroxymethyl)-3-pyridyl]-N4,N4-dipropyl-3H-1-benzazepine-4,8-dicarboxamide], the EC50 in test [1] is 15 nM; in test [2] it was more than 100000 nM.

In the case of `CCCN(CCC)C(=O)C1=Cc2ccc(C(=O)Nc3cccc(S(C)(=O)=O)c3)cc2N=C(N)C1` [Example 8, 2-Amino-N8-(3-methylsulfonylphenyl)-N4,N4-dipropyl-3H-1-benzazepine-4,8-dicarboxamide], the EC50 turned out to be 10 nM in test [1] and 44000 nM in test [2].

As to `CCCN(CCC)C(=O)C1=Cc2ccc(C(=O)Nc3cncs3)cc2N=C(N)C1` [Example 9, 2-Amino-N4,N4-dipropyl-N8-thiazol-5-yl-3H-1-benzazepine-4,8-dicarboxamide], the EC50 was 3 nM in test [1] and more than 100000 nM in test [2].

`CCCN(CCC)C(=O)C1=Cc2ccc(C(=O)Nc3ccc(Cl)cc3)cc2N=C(N)C1` [Example 10, 2-Amino-N8-(4-chlorophenyl)-N4,N4-dipropyl-3H-1-benzazepine-4,8-dicarboxamide]: the figures for the EC50 in test [1] and in test [2] were 2 nM and more than 100000 nM, respectively.

With `CCCN(CCC)C(=O)C1=Cc2ccc(C(=O)Nc3nccs3)cc2N=C(N)C1` [Example 11, 2-Amino-N4,N4-dipropyl-N8-thiazol-2-yl-3H-1-benzazepine-4,8-dicarboxamide], the EC50 was 29 nM in test [1] and more than 100000 nM in test [2].

With `CCCN(CCC)C(=O)C1=Cc2ccc(C(=O)Nc3cncn3C)cc2N=C(N)C1` [Example 12, 2-Amino-N8-(3-methylimidazol-4-yl)-N4,N4-dipropyl-3H-1-benzazepine-4,8-dicarboxamide], the half-maximal effective concentration (EC50) in test [1] is 4 nM; in test [2] it was more than 100000 nM.

As to `CCCN(CCC)C(=O)C1=Cc2ccc(C(=O)Nc3ccc(F)cc3)cc2N=C(N)C1` [Example 13, 2-Amino-N8-(4-fluorophenyl)-N4,N4-dipropyl-3H-1-benzazepine-4,8-dicarboxamide], the EC50 is 7 nM in test [1] and more than 100000 nM in test [2].

As for `CCCN(CCC)C(=O)C1=Cc2ccc(C(=O)Nc3cccc(C)c3)cc2N=C(N)C1` [Example 14, 2-Amino-N8-(m-tolyl)-N4,N4-dipropyl-3H-1-benzazepine-4,8-dicarboxamide], the results for the EC50 in test [1] and in test [2] were 1 nM and more than 100000 nM, respectively.

In general, EC50 refers to the concentration that produces a half-maximal response. The low end stands for an effect from little substance, the high end for a need for much substance.
